Laboratory results taken from patent US20210300940A1 (Merck Patent GmbH, priority 2018, published 2021).
Where a name gives a salt, the structure may show the parent alone.

Assays:
[1] = biological target: T1, TLR7 (Homo sapiens, UniProt Q9NYK1); test: HEK/293 TLR7 Cell Assay; assay type: cell-based; settings: TLR7/NFKb HEK cells, R848 agonist 10 uM final concentration, Steady-Glo readout; read-out: TLR7 potency
T1 construct: expressed in transfected cells; host or cells: HEK/293 cells carrying TLR7 and an NF-kB luciferase reporter
T1 sequence (Q9NYK1 27-1049): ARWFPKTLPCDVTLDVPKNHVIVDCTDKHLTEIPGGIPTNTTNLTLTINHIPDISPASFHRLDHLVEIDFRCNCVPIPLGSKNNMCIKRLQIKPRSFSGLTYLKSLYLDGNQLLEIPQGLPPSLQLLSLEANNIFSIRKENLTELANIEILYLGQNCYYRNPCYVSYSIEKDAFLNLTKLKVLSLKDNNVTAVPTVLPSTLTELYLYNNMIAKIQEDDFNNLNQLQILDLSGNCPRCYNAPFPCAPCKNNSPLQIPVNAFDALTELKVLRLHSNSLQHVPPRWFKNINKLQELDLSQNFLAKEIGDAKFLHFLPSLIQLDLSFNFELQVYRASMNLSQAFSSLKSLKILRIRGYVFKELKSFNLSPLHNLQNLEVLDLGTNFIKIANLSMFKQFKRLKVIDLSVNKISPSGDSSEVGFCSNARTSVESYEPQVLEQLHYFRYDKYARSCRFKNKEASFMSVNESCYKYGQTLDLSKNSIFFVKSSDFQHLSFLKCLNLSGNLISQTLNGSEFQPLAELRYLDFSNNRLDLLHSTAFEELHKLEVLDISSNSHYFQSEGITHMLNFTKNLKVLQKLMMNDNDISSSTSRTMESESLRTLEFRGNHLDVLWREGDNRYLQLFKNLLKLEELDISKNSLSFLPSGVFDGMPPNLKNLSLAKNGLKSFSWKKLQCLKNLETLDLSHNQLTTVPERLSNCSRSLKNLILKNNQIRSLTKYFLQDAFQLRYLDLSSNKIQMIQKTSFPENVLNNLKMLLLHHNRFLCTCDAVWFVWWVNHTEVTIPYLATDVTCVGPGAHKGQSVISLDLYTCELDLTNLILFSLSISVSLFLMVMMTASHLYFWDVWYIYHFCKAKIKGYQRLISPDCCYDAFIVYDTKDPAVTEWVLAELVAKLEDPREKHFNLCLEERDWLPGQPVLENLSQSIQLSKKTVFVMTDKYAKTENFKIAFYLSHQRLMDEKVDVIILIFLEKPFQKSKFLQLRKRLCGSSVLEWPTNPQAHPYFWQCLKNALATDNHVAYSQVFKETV
Outline: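 Compounds added to HEK cells expressing TLR7 with an NFκB reporter 30 min ahead of 10 uM R848 challenge; luciferase signal (Steady-Glo) measured after 5 h, cells having been seeded 24 h earlier at 5000 per well.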

[2] = biological target: T2, TLR8 (Homo sapiens, UniProt Q9NR97); test: HEK/293 TLR8 Cell Assay; assay type: cell-based; settings: HEK cells, R848 agonist 30 uM final concentration, Steady-Glo readout; read-out: TLR8 potency
T2 construct: expressed in transfected cells; host or cells: HEK/293 reporter cells (NF-kB luciferase)
T2 sequence (Q9NR97 27-1041): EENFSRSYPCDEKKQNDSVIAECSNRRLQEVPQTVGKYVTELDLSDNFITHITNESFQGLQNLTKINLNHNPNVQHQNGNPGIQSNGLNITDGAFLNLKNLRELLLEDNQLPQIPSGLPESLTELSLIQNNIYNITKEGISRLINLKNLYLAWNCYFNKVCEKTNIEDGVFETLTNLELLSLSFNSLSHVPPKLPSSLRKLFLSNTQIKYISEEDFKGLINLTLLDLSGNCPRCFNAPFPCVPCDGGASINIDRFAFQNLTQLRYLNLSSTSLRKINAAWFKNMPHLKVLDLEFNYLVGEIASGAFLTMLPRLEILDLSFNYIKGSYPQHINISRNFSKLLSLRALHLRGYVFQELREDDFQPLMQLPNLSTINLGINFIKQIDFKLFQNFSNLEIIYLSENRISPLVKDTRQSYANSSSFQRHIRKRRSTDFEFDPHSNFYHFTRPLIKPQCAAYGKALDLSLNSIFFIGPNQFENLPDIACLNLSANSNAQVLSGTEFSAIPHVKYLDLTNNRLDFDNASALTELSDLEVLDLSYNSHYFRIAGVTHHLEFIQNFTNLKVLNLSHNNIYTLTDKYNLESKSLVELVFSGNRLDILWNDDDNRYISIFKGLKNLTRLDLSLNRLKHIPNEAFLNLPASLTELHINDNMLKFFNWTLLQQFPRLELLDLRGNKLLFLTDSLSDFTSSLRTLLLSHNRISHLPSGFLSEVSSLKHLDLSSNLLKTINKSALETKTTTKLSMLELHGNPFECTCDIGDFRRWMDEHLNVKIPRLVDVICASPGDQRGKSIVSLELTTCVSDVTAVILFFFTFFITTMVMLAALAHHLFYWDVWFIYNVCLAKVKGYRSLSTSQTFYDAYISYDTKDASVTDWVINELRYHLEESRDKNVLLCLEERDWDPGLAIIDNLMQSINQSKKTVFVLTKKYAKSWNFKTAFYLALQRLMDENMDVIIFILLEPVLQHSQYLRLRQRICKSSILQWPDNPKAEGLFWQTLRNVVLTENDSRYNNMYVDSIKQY

Row | Structure (SMILES) | IC50 [1] [µM] | IC50 [2] [µM]
1 | CNS(=O)(=O)CCCN[C@@H]1C[C@H](C)CN(c2ccc(C(F)(F)F)c3ncccc23)C1 [Example 32, 3-[(3R,5S)-5-Methyl-1-(8-trifluoromethyl-quinolin-5-yl)-piperidin-3-ylamino]-propane-1-sulfonic acid methylamide] | < 0.075 | < 0.075
2 | N#Cc1ccc(N2C[C@@H](C(F)(F)F)O[C@@H](C(=O)NC[C@H](O)CO)C2)c2nccnc12 (single isomer, unassigned) [Example 280] | 0.075 to 0.15 | > 0.15
3 | C[C@@H]1CN(c2ccc(C#N)c3nccnc23)C[C@H](C(=O)N2C[C@H](N)C[C@H](C(F)(F)F)C2)O1 [Example 295, 8-[(2R,6R)-2-((3R,5S)-3-Amino-5-trifluoromethyl-piperidine-1-carbonyl)-6-methyl-morpholin-4-yl]-quinoxaline-5-carbonitrile hydrochloride (2)] | < 0.075 | < 0.075
4 | N#Cc1ccc(N2C[C@H](NCCCS(N)(=O)=O)C[C@H](C(F)(F)F)C2)c2cccnc12 [Example 38, 3-[(3R,5S)-1-(8-Cyano-quinolin-5-yl)-5-trifluoromethyl-piperidin-3-ylamino]-propane-1-sulfonic acid amide] | > 0.15 | 0.075 to 0.15
5 | O=C(N[C@@H]1C[C@H](C(F)(F)F)CN(c2ccc(C(F)(F)F)c3ncccc23)C1)[C@@H]1CCCN1 [Example 123, (2S)—N-[(3R,5S)-5-(trifluoromethyl)-1-[8-(trifluoromethyl)quinolin-5-yl]piperidin-3-yl]pyrrolidine-2-carboxamide] | 0.075 to 0.15 | < 0.075
6 | CN1CC[C@](F)(CNC(=O)[C@H]2CN(c3ccc(C#N)c4nccnc34)C[C@@H](C(F)(F)F)O2)C1 (single isomer, unassigned) [Example 357] | < 0.075 | < 0.075
7 | C[C@H]1C[C@@H](NC(=O)CCC2CCN(C)CC2)CN(c2cnc(C#N)c3nccnc23)C1 [Example 189, N-[(3R,5S)-1-(5-Cyano-pyrido[3,4-b]pyrazin-8-yl)-5-methyl-piperidin-3-yl]-3-(1-methyl-piperidin-4-yl)-propionamide] | 0.075 to 0.15 | < 0.075
8 | CN1CC[C@@](F)(CNC(=O)[C@H]2CN(c3cnc(C#N)c4ncccc34)C[C@@H](C(F)(F)F)O2)C1 (single isomer, unassigned) [Example 350] | > 0.15 | > 0.15
9 | N#Cc1ncc(N2C[C@@H](C(F)(F)F)O[C@@H](C(=O)NCC3(F)CCNCC3)C2)c2cccnc12 (single isomer, unassigned) [Example 317] | < 0.075 | 0.075 to 0.15
10 | C[C@H]1C[C@@H](NC(=O)C2CCN(C(=O)[C@@H](N)[C@@H](C)O)CC2)CN(c2ccc(C(F)(F)F)c3ncccc23)C1 [Example 182, 1-((2S,3R)-2-Amino-3-hydroxy-butyryl)-piperidine-4-carboxylic acid [(3R,5S)-5-methyl-1-(8-trifluoromethyl-quinolin-5-yl)-piperidin-3-yl]-amide] | < 0.075 | < 0.075
11 | C[C@H]1C[C@@H](NC(=O)[C@@](C)(N)CO)CN(c2ccc(C(F)(F)F)c3ncccc23)C1 [Example 178, (S)-2-Amino-3-hydroxy-2-methyl-N-[(3R,5S)-5-methyl-1-(8-trifluoromethyl-quinolin-5-yl)-piperidin-3-yl]-propionamide] | > 0.15 | < 0.075
12 | C[C@H]1C[C@@H](NC(=O)[C@H]2CCCN2)CN(c2ccc(C#N)c3nccnc23)C1 [Example 174, (R)-Pyrrolidine-2-carboxylic acid [(3R,5S)-1-(8-cyano-quinoxalin-5-yl)-5-methyl-piperidin-3-yl]-amide] | > 0.15 | 0.075 to 0.15
13 | C[C@H]1C[C@@H](NC(=O)CC2CCN(CCO)CC2F)CN(c2cnc(C#N)c3ncccc23)C1 (stereo partly drawn) [Example 148, N-[(3R,5S)-1-(8-Cyano-[1,7]naphthyridin-5-yl)-5-methyl-piperidin-3-yl]-2-[3-fluoro-1-(2-hydroxy-ethyl)-piperidin-4-yl]-acetamide] | 0.075 to 0.15 | < 0.075
14 | N#Cc1ccc(N2C[C@H](n3cccn3)C[C@H](C(F)(F)F)C2)c2nccnc12 (racemic) [Example 156, 8-[cis-3-(1H-pyrazol-1-yl)-5-(trifluoromethyl)piperidin-1-yl]quinoxaline-5-carbonitrile] | > 0.15 | > 0.15
15 | N#Cc1ccc(N2C[C@@H](C(F)(F)F)O[C@@H](C(=O)NC[C@@H](O)CO)C2)c2nccnc12 (single isomer, unassigned) [Example 282] | 0.075 to 0.15 | > 0.15
16 | C[C@H]1C[C@@H](NC(=O)NCCN(C)C)CN(c2ccc(C(F)(F)F)c3nccnc23)C1 [Example 141, 3-[2-(dimethylamino)ethyl]-1-[(3R,5S)-5-methyl-1-[8-(trifluoromethyl)quinoxalin-5-yl]piperidin-3-yl]urea] | < 0.075 | < 0.075
17 | C[C@H]1C[C@@H](NCC2(O)CCOCC2)CN(c2cnc(C(F)(F)F)c3ncccc23)C1 [Example 11, 4-{[(3R,5S)-5-Methyl-1-(8-trifluoromethyl-[1,7]naphthyridin-5-yl)-piperidin-3-ylamino]-methyl}-tetrahydro-pyran-4-ol] | > 0.15 | > 0.15
18 | N#Cc1ccc(N2C[C@H](NC(=O)C3(F)CCNC3)C[C@H](C(F)(F)F)C2)c2cccnc12 (stereo partly drawn) [Example 206, N-[(3R,5S)-1-(8-cyanoquinolin-5-yl)-5-(trifluoromethyl)piperidin-3-yl]-3-fluoropyrrolidine-3-carboxamide] | 0.075 to 0.15 | 0.075 to 0.15
19 | N#Cc1ccc(N2C[C@@H](CN3CC(O)C3)O[C@@H](C(F)(F)F)C2)c2nccnc12 (single isomer, unassigned) [Example 362] | < 0.075 | > 0.15
20 | Cc1cc(CC(=O)N[C@@H]2C[C@H](C)CN(c3ccc(C#N)c4nccnc34)C2)on1 [Example 74, N-[(3R,5S)-1-(8-cyanoquinoxalin-5-yl)-5-methylpiperidin-3-yl]-2-(3-methyl-1,2-oxazol-5-yl)acetamide] | < 0.075 | < 0.075
21 | CC(=O)NCCN[C@@H]1C[C@H](C)CN(c2ccc(C(F)(F)F)c3ncccc23)C1 [Example 37, N-{2-[(3R,5S)-5-Methyl-1-(8-trifluoromethyl-quinolin-5-yl)-piperidin-3-ylamino]-ethyl}-acetamide formic acid] | < 0.075 | < 0.075
22 | C[C@@H]1CN(c2ccc(C#N)c3ncncc23)C[C@H](CNC(=O)[C@@]2(F)CCNC2)O1 (single isomer, unassigned) [Example 344] | < 0.075 | < 0.075
